Results as given in patent EP0342396A1, “Ophthalmic ointments for the treatment of glaucoma, comprising ergot alkaloids” (LEK, tovarna farmacevtskih in kemicnih izdelkov, n.sol.o., priority 1988, dated 1989).

Key:
glaucoma patients [1] = test: Clinical trial: effect of ophthalmic ointment comprising 0.01 % active substance on intraocular pressure (I.O.P.); details: human, in vivo
Protocol: (§1) The clinical tests on glaucoma patients were performed with an ophthalmic ointment comprising 0.01 % and 0.025 % of dihydro­ergotoxine methanesulfonate or bromocryptine methanesulfonate.
Effect of ophthalmic ointment comprising 0.01 % of dihydroer­gotoxine methanesulfonate or bromocryptine methanesulfonate on the intraocular pressure (I.O.P.) in glaucoma patients
The effect of the ophthalmic ointment comprising 0.01 % of dihydroergotoxine (as base and as methanesulfonate salt) and of bromocryptine methanesulfonate on the intraocular pressure in both eyes was tested in five male and three female glaucoma patients aged from 34 to 62 years.

glaucoma patients [2] = details: human, in vivo
Protocol: as §1
The effect of the ophthalmic ointment comprising 0.025 % of dihydroergotoxine methanesulfonate or bromocryptine methane­sulfonate on the intraocular pressure in both eyes was tested in four male and three female glaucoma patients, agend from 31 to 64 years.
The ointment was applied into the conjunctival sac in the morning and in the evening. Before application, the I.O.P. was measured. This procedure was repeated for five days.

In the case of `CC(C)C[C@H]1C(=O)N2CCC[C@H]2[C@]2(O)O[C@](NC(=O)[C@@H]3C=C4c5cccc6[nH]c(Br)c(c56)C[C@H]4N(C)C3)(C(C)C)C(=O)N12` [bromocryptine methanesulfonate], the “maximum reduction of I.O.P.” value (glaucoma patients [1]) is reported as 21%, the “time for which the effect (reduction of I.O.P.) was present” value (glaucoma patients [1]) is reported as “at least five” and the “I.O.P. from which it decreased” value (glaucoma patients [2]) is reported as 4.00 kPa. For the same compound, the “I.O.P. to which it decreased” value (glaucoma patients [2]) was 2.67 kPa, the “reduction of intraocular pressure” value (glaucoma patients [2]) was 30% and the undesired side effects (glaucoma patients [2]) was “No undesired side effects”.
